According to DBAASP:
≈ marks a conversion by molar mass, not a printed value.

Legend:
Test in all cases: ≥ marks a high value that may be exact or a test limit, other limits are often not marked, values filed in µg/mL are converted to µM
[1] = system: Acinetobacter baumannii ATCC 17978
Bacillus cereus DSM 4222 = system: Bacillus cereus DSM 4222
Bacillus cereus DSM 4312 = system: Bacillus cereus DSM 4312
[2] = system: Bacillus subtilis ATCC 6051
[3] = system: Bacillus subtilis ATCC 6633
[4] = system: Clostridium perfringens ATCC 13124
[5] = system: Clostridium perfringens DSM 11784
[6] = system: Enterobacter cloacae ATCC 13047
[7] = system: Enterococcus faecium ATCC 19434
[8] = system: Escherichia coli ATCC 35150
[9] = system: Escherichia coli ATCC 8739
[10] = system: Escherichia coli NCTC 13452
[11] = system: Escherichia coli NEB5alpha
[12] = system: Escherichia coli O157:H7 ATCC 35150
Escherichia coli = system: Escherichia coli
[13] = system: Klebsiella pneumoniae ATCC 13883
[14] = system: Listeria monocytogenes ATCC 19115
[15] = system: Listeria monocytogenes SLCC 5581
Listeria monocytogenes = system: Listeria monocytogenes
[16] = system: Pseudomonas aeruginosa ATCC 10145
[17] = system: Pseudomonas fluorescens DSM 50124
[18] = system: Pseudomonas putida DSM 291
[19] = system: Salmonella enterica subsp. enterica serovar Typhimurium ATCC 14028
[20] = system: Salmonella enterica subsp. enterica serovar Typhimurium DSM 554
[21] = system: Salmonella typhimurium DSM 19587
[22] = system: Staphylococcus aureus ATCC 16558
[23] = system: Staphylococcus aureus ATCC 25923
[24] = system: Staphylococcus aureus ATCC 3300
[25] = system: Staphylococcus aureus ATCC 43300
[26] = system: Staphylococcus aureus ATCC 6538
[27] = system: Staphylococcus aureus DSM 2569
[28] = system: Staphylococcus aureus RN4220
Fusarium graminearum = system: Fusarium graminearum
Candida albicans DBFIQ 1 = system: Candida albicans DBFIQ 1
Candida albicans PEEC 2 = system: Candida albicans PEEC 2
[29] = system: Candida tropicalis DBFIQ 3
[30] = system: Enterococcus faecalis ATCC 29212
[31] = system: Escherichia coli ATCC 35218
[32] = system: Pseudomonas aeruginosa ATCC 27853
[33] = system: Staphylococcus aureus BSF FBCB1313
[34] = system: Candida albicans ATCC 10231
[35] = system: Candida glabrata ATCC 2001
Candida krusei ATCC 6258 = system: Candida krusei ATCC 6258
[36] = system: Candida parapsilosis ATCC 90018
[37] = system: Candida tropicalis ATCC 750
[38] = system: Escherichia coli ATCC 25922
[39] = system: Staphylococcus aureus ATCC 29213
[40] = system: Bacillus subtilis KCCM 11495
[41] = system: Escherichia coli KCCM 11569
[42] = system: Bifidobacterium longum subsp. infantis
Staphylococcus aureus = system: Staphylococcus aureus

CC[C@H](C)[C@H](NC(=O)[C@@H](N)CCCN=C(N)N)C(=O)N[C@@H](CCCCN)C(=O)N[C@H](C(=O)N[C@H](C(=O)N[C@H](C(=O)N[C@@H](CO)C(=O)N[C@@H](Cc1ccccc1)C(=O)N[C@@H](CC(=O)O)C(=O)N[C@@H](CC(C)C)C(=O)N1CCC[C@H]1C(=O)N[C@@H](C)C(=O)N[C@@H](CC(C)C)C(=O)N[C@@H](CCCN=C(N)N)C(=O)N[C@@H](Cc1c[nH]c2ccccc12)C(=O)N[C@@H](CC(C)C)C(=O)N[C@@H](CCCCN)C(=O)N[C@@H](CC(C)C)C(=O)O)[C@@H](C)O)C(C)C)[C@@H](C)O [RIKTVTSFDLPALRWLKL]
MIC [1]: ≥ 464 µM | MIC (Bacillus cereus DSM 4222): ≥ 1000 µM | MIC (Bacillus cereus DSM 4312): ≥ 1000 µM | MIC [2]: 15.6 µM (≈ 33.7 µg/mL) | MIC [3]: ≥ 1160 µM | MIC [4]: ≥ 125 µM | MIC [5]: ≥ 1000 µM | MIC [6]: ≥ 464 µM | MIC [7]: ≥ 464 µM | MIC [8]: ≥ 500 µM | MIC [9]: ≥ 371 µM | MIC [10]: ≥ 125 µM | MIC [11]: ≥ 62.5 µM | MIC [12]: ≥ 371 µM | MIC (Escherichia coli): > 464 µM | MIC [13]: ≥ 464 µM | MIC [14]: ≥ 1160 µM | MIC [15]: ≥ 500 µM | MIC (Listeria monocytogenes): ≥ 250 µM | MIC [16]: ≥ 464 µM | MIC [17]: ≥ 500 µM | MIC [18]: ≥ 125 µM | MIC [19]: > 464 µM | MIC [20]: ≥ 1000 µM | MIC [21]: ≥ 1000 µM | MIC [22]: ≥ 1160 µM | MIC [23]: > 464 µM | MIC [24]: ≥ 500 µM | MIC [25]: > 464 µM | MIC [26]: > 1160 µM | MIC [27]: ≥ 500 µM | MIC [28]: ≥ 1160 µM

CC(C)C[C@H](NC(=O)[C@@H](N)CCCCN)C(=O)N[C@@H](CS)C(=O)N[C@@H](CCC(=O)O)C(=O)N[C@@H](CCCCN)C(=O)N1CCC[C@H]1C(=O)N[C@@H](CO)C(=O)N[C@@H](CCCCN)C(=O)N[C@H](C(=O)N[C@@H](Cc1c[nH]c2ccccc12)C(=O)N[C@@H](Cc1ccccc1)C(=O)NCC(=O)N[C@@H](CC(N)=O)C(=O)N[C@@H](CS)C(=O)NCC(=O)N[C@@H](CC(N)=O)C(=O)N1CCC[C@H]1C(=O)N[C@@H](CCCN=C(N)N)C(=O)N[C@@H](Cc1cnc[nH]1)C(=O)N[C@@H](CS)C(=O)NCC(=O)O)[C@@H](C)O [KLCEKPSKTWFGNCGNPRHCG]
MIC (Fusarium graminearum): ≥ 32 µM

CC(C)C[C@H](NC(=O)[C@H](CCCCN)NC(=O)[C@H](CCCCN)NC(=O)[C@H](Cc1ccccc1)NC(=O)[C@H](CC(C)C)NC(=O)[C@H](CCCCN)NC(=O)[C@H](CCCCN)NC(=O)[C@H](Cc1ccccc1)NC(=O)[C@H](CC(C)C)NC(=O)[C@@H](N)CCCCN)C(=O)N[C@@H](Cc1ccccc1)C(=O)N[C@@H](CCCCN)C(N)=O [KLFKKLFKKLFK]
MIC (Candida albicans DBFIQ 1): ≥ 40.8 µM | MIC (Candida albicans PEEC 2): ≥ 40.8 µM | MIC [29]: ≥ 81.7 µM | MIC [30]: 5.1 µM (≈ 7.99 µg/mL) | MIC [31]: 5.1 µM (≈ 7.99 µg/mL) | MIC [32]: 2.6 µM (≈ 4.07 µg/mL) | MIC [23]: 2.6 µM (≈ 4.07 µg/mL) | MIC [33]: 10.2 µM (≈ 16 µg/mL)

CC[C@H](C)[C@H](NC(=O)CN)C(=O)N[C@@H](CC(C)C)C(=O)N[C@@H](CC(=O)O)C(=O)N[C@H](C(=O)N[C@@H](CCCCN)C(=O)N[C@@H](CC(N)=O)C(=O)N[C@@H](CCCCN)C(=O)N[C@H](C(=O)N[C@@H](CO)C(=O)N[C@@H](CC(N)=O)C(=O)N[C@@H](CC(C)C)C(=O)N[C@@H](Cc1ccccc1)C(=O)N[C@@H](CCCCN)C(=O)N[C@@H](CCCCN)C(=O)N[C@H](C(=O)N[C@@H](CCCCN)C(N)=O)[C@@H](C)CC)C(C)C)[C@@H](C)CC [GILDIKNKVSNLFKKIK]
MIC [34]: 250 µM (≈ 489 µg/mL) | MIC [35]: ≥ 500 µM | MIC (Candida krusei ATCC 6258): ≥ 62.5 µM | MIC [36]: ≥ 500 µM | MIC [37]: ≥ 500 µM | MIC [38]: > 130 µM | MIC [32]: > 130 µM | MIC [39]: > 130 µM

CC(C)C[C@H](NC(=O)CNC(=O)[C@H](Cc1cnc[nH]1)NC(=O)[C@H](Cc1cnc[nH]1)NC(=O)[C@H](CC(C)C)NC(=O)[C@H](CC(C)C)NC(=O)[C@H](C)NC(=O)[C@H](CC(N)=O)NC(=O)[C@H](CC(C)C)NC(=O)[C@@H](N)Cc1c[nH]c2ccccc12)C(=O)N[C@@H](CC(N)=O)C(=O)N[C@@H](CS)C(=O)N[C@@H](C)C(=O)N[C@@H](CCCCN)C(=O)NCC(N)=O [WLNALLHHGLNCAKG]
MIC [40]: ≥ 38.9 µM | MIC [41]: ≥ 38.9 µM

CC[C@H](C)[C@H](NC(=O)[C@@H]1CCCN1C(=O)[C@H](CC(N)=O)NC(=O)[C@H](Cc1cnc[nH]1)NC(=O)[C@@H](NC(=O)[C@@H]1CCCN1C(=O)[C@H](C)NC(=O)[C@@H](N)CC(C)C)C(C)C)C(=O)O [LAPVHNPI]
MIC [42]: ≥ 3490 µM | MIC (Escherichia coli): 3490 µM (≈ 3000 µg/mL) | MIC (Staphylococcus aureus): 3490 µM (≈ 3000 µg/mL)
